The values that follow come from PubChem BioAssay AID1918946 (Molecular Pharmacology Branch, DTP, NCI, 2023).

pIC50: −log10 of the molar value. Where “and” joins values, the source holds several entries; their conditions need not be identical. Identical values can stand only once. Calls of active or inactive are those of the source. How the source made its calls: active means viability on the fitted dose curve at most 10% of control; inactive means the rest. A value given as a limit tells only on which side of the number the result lay.

The experiment concerns 885512-296-R-J2-PDC complex spheroid viability. The experiment is described as follows: Anticancer human tumor 885512-296-R-J2-PDC patient-derived breast carcinoma cell line growth inhibition. The note with it: for viability, T/C: stronger effect = lower value. An excerpt:
Multicellular complex tumor spheroid response to LSD1 Inhibitor Iadademstat in combination with a variety of drugs and investigational agents in selected tumor cell lines
The current study was undertaken to assess response to LSD1 inhibitors in combination with standard-of-care drugs and investigational agents in solid tumor complex spheroid models as well as in the K-562 leukemia. Complex spheroids include a stromal component modeled by human endothelial cells (HUVEC) and fibroblasts modeled by human mesenchymal stem cells (MSCs). The concentration ranges selected for each drug and investigational agent were based upon clinically achievable concentrations if the clinical Cmax of the agent was known.
Compounds. The drugs and investigational agents used in this study are listed on Table 1. All of the agents used, including staurosporine (NSC755774) and gemcitabine (NSC613327), were obtained from the Developmental Therapeutics Program, NCI. FDA-approved anticancer drugs are available from the NCI at http://dtp.nci.nih.gov/branches/dscb/oncology_drugset_explanation.html. Drugs and investigational agents were >95% pure by proton nuclear magnetic resonance (NMR) and liquid chromatography/mass spectrometry (LC/MS). Stock solutions were prepared at 400x in DMSO, stored at -70 degrees C, and diluted in fresh medium prior to their use. The final concentration of DMSO in cell culture wells never exceeded 0.25% (v/v). The FDA-approved anticancer drug set is available from the Developmental Therapeutics Program at https://dtp.cancer.gov/organization/dscb/obtaining/available_plates.htm. All drugs and investigational agents were tested over a range starting from a high concentration at or near the clinical Cmax and decreasing in half-log increments. If the clinical Cmax for an agent had not been determined, the highest concentration tested was 10 microM.
Cell Lines. The patient-derived cancer cell (PDC) lines: 292921-168-R-J2-PDC, K24384-001-R-PDC, and 521955-158-R2-J5-PDC pancreatic carcinomas, 556581-035-R-J1 ovarian carcinoma, 324938-238-R-J1-PDC, 855422-203-R-J1-PDC and 883617-216-R-J1-PDC urothelial bladder carcinomas, 743489-274-T-PDC renal cell carcinoma, 138582-R-J1 Merkel cell tumor, K60290-347-R-J1 and K57222-313-R-J1-PDC glioblastomas, 653999-131-R-J2-PDC, LG0703-F948-PDC, and 349418-098-R-PDC non-small cell lung carcinomas, 885512-296-R-J2-PDC, 171881-019-R-J1-PDC breast carcinomas and 186277-243-T-J2-PDC and 233499-124-R-J2-PDC colon carcinomas were obtained from the NCI Patient-Derived Models Repository (PDMR, https://pdmr.cancer.gov). The established cell lines NCI/ADR-RES (RRID:CVCL_14520 and OVCAR-5 (RRID:CVCL_1628) ovarian carcinomas, 786-O (RRID:CVCL_1051) and A498 (RRID:CVCL_A498) renal cell carcinoma, NCI-H211 (ATCC, cat. CRL-5824; RRID:CVCL_1529), NCI-H196 (ATCC, cat. CRL-5823, RRID:CVCL_1509), SW 1271 (ATCC, cat. CRL-2177, RRID:CVCL_1716) and NCI-H1876 (ATCC, cat. CRL-5902, RRID:CVCL_1503) small cell lung carcinomas, MDA-MB-231 (RRID:CVCL_0062) and MDA-MB-468 (RRID:CVCL_0419)breast carcinomas (10-12). Pooled donor human umbilical vein endothelial cells (HUVEC, Lonza, cat. CC-2519) and human mesenchymal stem cells (hMSC, Lonza, cat. PT-2501) were purchased from Lonza (Walkersville, MD).
Cell Culture. All cells were maintained in an incubator at 37 degrees C and 5% CO2 with 95% humidity. The PDC lines were cultured according to standard operating procedures established by the NCI PDMR (https://pdmr.cancer.gov). Briefly all PDCs were thawed and cultured in Matrigel-coated flasks prepared with a working solution of 1X Ham's F-12 nutrient mix, without supplementation (Invitrogen, Waltham, MA, cat. 11765054), 100 U/mL penicillin-streptomycin (Invitrogen, cat. 15140122), and 2.5% Matrigel (Corning Inc., Corning, NY, cat. 354248) for the first three passages. […]
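Wherever pIC50 is given: spheroids exposed to agents for 7 days before viability read.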
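Wherever viability, T/C is given: spheroids exposed to agents for 7 days before viability read.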

For orientation: viability, T/C means the result in the treated group divided by that in the control group, in per cent. The term pIC50 denotes the negative decadic logarithm of the IC50, by convention in mol/L. As for `CC(C)c1c(-c2ccccc2)nc2c(C#N)c[nH]n2c1=O`, the viability, T/C runs as follows: (compound 0.0316 µM) 90.7% and 86%; (compound 0.1 µM) 106% and 89.1%; (compound 0.316 µM) 86.7% and 80.9%; (compound 1 µM) 99.3% and 81%; (compound 3.16 µM) 92.9% and 87.5%; (compound 10 µM) 57%. For the setting “compound 10 µM”, the result was active. The pIC50 (curve of compound) was 5.38 and < 5.00.

`CC1COCCN1c1cc(C2(S(C)(=N)=O)CC2)nc(-c2ccnc3[nH]ccc23)n1` (stereo unspecified): the viability, T/C is 89.7% and 84.5% (compound 0.0316 µM); 69.7% and 90.6% (compound 0.1 µM); 14.4% and 49.3% (compound 0.316 µM); 7.6% and 9.02% (compound 1 µM); 7.26% and 2.77% (compound 3.16 µM); 7.13% and 1.85% (compound 10 µM). Besides, for the setting “curve of compound”, the pIC50 is 6.82 and 6.50.

As to `COc1ccc([C@@H](O)c2cc(-c3ncnc4cc(N5CCOCC5)ccc34)c(F)cc2Cl)nn1`, the viability, T/C was 83.8% and 95.7% (compound 0.0316 µM); 96.8% and 82.8% (compound 0.1 µM); 81.9% and 61.3% (compound 0.316 µM); 52.8% and 50.3% (compound 1 µM); 16.6% and 37.4% (compound 3.16 µM); 10.3% and 9.6% (compound 10 µM). The pIC50 (curve of compound) is 5.97 and 6.01.

Consider `NC1CC1c1ccc(-c2cccc(O)c2)cc1` (stereo unspecified), for which the viability, T/C (compound 0.1 µM) is 133%. For the same compound, the pIC50 (compound alone, run of 02/01/2022) is below 5.00.

With `NC1CCC(NC2CC2c2ccccc2)CC1` (stereo unspecified), the viability, T/C (compound 0.316 µM) was 121% (2×) and 120%. In addition, the pIC50 (compound alone, run of 01/24/2022) was below 5.00.

On to `Nc1ncn(C2CC(O)C(CO)O2)c(=O)n1` (stereo unspecified) + NC1CC1c1ccc(-c2cccc(O)c2)cc1, for which the pIC50 was 7.11 (curve of first compound, second compound 0.1 µM); 7.14 (curve of first compound, second compound 0.316 µM); 7.06 (curve of first compound, second compound 1 µM); 7.14 (curve of first compound, second compound 3.16 µM); 7.33 (curve of first compound, second compound 10 µM). Besides, the viability, T/C (second compound 0.1 µM, first compound 0.00316 µM) is 116%; the viability, T/C (second compound 0.1 µM, first compound 0.01 µM) is 106%; the viability, T/C (second compound 0.1 µM, first compound 0.0316 µM) was 79%; the viability, T/C (second compound 0.1 µM, first compound 0.1 µM) was 41.6%; the viability, T/C (second compound 0.1 µM, first compound 0.316 µM) was 21.4%; the viability, T/C (second compound 0.1 µM, first compound 1 µM) was 13.3%. The viability, T/C is, setting by setting: (second compound 0.316 µM, first compound 0.00316 µM) 106%; (second compound 0.316 µM, first compound 0.01 µM) 112%; (second compound 0.316 µM, first compound 0.0316 µM) 70.5%; (second compound 0.316 µM, first compound 0.1 µM) 43.1%; (second compound 0.316 µM, first compound 0.316 µM) 23.4%; (second compound 0.316 µM, first compound 1 µM) 15.9%. Also, the viability, T/C was 107% (second compound 1 µM, first compound 0.00316 µM); 99.4% (second compound 1 µM, first compound 0.01 µM); 81.2% (second compound 1 µM, first compound 0.0316 µM); 44.5% (second compound 1 µM, first compound 0.1 µM); 22.9% (second compound 1 µM, first compound 0.316 µM); 13.4% (second compound 1 µM, first compound 1 µM). Besides, the viability, T/C was 95.5% (second compound 3.16 µM, first compound 0.00316 µM); 103% (second compound 3.16 µM, first compound 0.01 µM); 73.1% (second compound 3.16 µM, first compound 0.0316 µM); 40.6% (second compound 3.16 µM, first compound 0.1 µM); 21.7% (second compound 3.16 µM, first compound 0.316 µM); 13.4% (second compound 3.16 µM, first compound 1 µM). For the same compound, the viability, T/C (second compound 10 µM, first compound 0.00316 µM) was 72%; the viability, T/C (second compound 10 µM, first compound 0.01 µM) was 69.5%; the viability, T/C (second compound 10 µM, first compound 0.0316 µM) was 57.5%; the viability, T/C (second compound 10 µM, first compound 0.1 µM) was 34.6%; the viability, T/C (second compound 10 µM, first compound 0.316 µM) is 18.3%; the viability, T/C (second compound 10 µM, first compound 1 µM) was 11.4%.
